How the values were obtained:
[1] = tested on: staphylococcus ATTC11632(Sr); assay: Antibacterial activity, zone of inhibition, penicillin resistant Sr strain; format: cell-based
Protocol: (§1) Next, the antibacterial activity of the prepared sulfur-containing BPA-FBz compounds is evaluated using two strains of staphylococcus ATTC6341(Sa) and ATTC11632(Sr), and the results are shown in Table 2. In particular, the Sa strain and the Sr strain have different sensitivities to antibiotics. The Sa strain is penicillin sensitive, and the Sr strain is penicillin resistant, and ampicillin is used as positive control. It can be known from Table 2 that, none of BPA-FBz and sulfur-containing BPA-FBz compounds having low sulfur content (i.e., compounds 1 and 2) has antibacterial activity.

[2] = tested on: staphylococcus ATTC6341(Sa); assay: Antibacterial activity, zone of inhibition, penicillin sensitive Sa strain; format: cell-based
Protocol: as §1

[3] = dash = no antibacterial activity

Q: With CC(C)(c1ccc2c(c1)CN(Cc1ccco1)CO2)c1ccc2c(c1)CN(Cc1ccco1)CO2 [BPA-FBz, bis(3-furfuryl-3,4-dihydro-2H-1,3-benzoxazinyl)isopropane] as the compound, how does the “antibacterial activity (in words)” value [1] read?
A: none

Q: What about the “antibacterial activity (in words)” value [2] of the same compound?
A: none

Q: What does the source list for CC1(C)S[C@@H]2[C@H](NC(=O)[C@H](N)c3ccccc3)C(=O)N2[C@H]1C(=O)O [Ampicillin, ampicillin]?
A: Zone of inhibition [1, 3]: 9.0 mm; Zone of inhibition [2, 3]: 34.0 mm

Source: patent publication US9809584B1, “Sulfur-containing oxazine compound and synthesis method thereof” (National Tsing Hua University, priority 2016, dated 2017)
